Data from patent US9770446B2, “Piperidine urea derivatives” (MERCK PATENT GMBH, priority 2013, dated 2017).

What follows are molecules tested on Tankyrase (assay: Cellular inhibition of Tankyrase: Axin2 level in DLD1 cells (Luminex)). Conditions: 24 hours, Axin2 increase, read-out: EC50 [M] TNKS cellular assay.
Format: cell-based
How it was run: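 DLD1 colon carcinoma cells treated 24 h with seven-step serial dilutions in triplicate (0.3% DMSO final). Axin2 in cleared lysates captured on anti-Axin2 beads, detected with polyclonal anti-Axin2 plus PE secondary, and quantified by Luminex. EC50 from data normalized to solvent control; IWR-2 (3E-06 M) marks maximal Axin2 increase.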

| SMILES | EC50 [M] |
| --- | --- |
| COc1ccc(N(C)C(=O)N2CCC(C(=O)c3cccc(OC)c3)CC2)cc1 [Compound A27, 4-(3-methoxy-benzoyl)-piperidine-1-carboxylic acid (4-methoxy-phenyl)methyl-amide] | < 3e-07 |
| COc1ccc(C(=O)C2CCN(C(=O)N(C)c3ccc(OC)cc3)CC2)cc1 [Compound A6, 4-(4-methoxy-benzoyl)-piperidine-1-carboxylic acid (4-methoxy-phenyl)methyl-amide] | < 3e-07 |
| COc1ccc(C(=O)C2CCN(C(=O)N3CCc4ccccc43)CC2)cc1 [Compound A18, (2,3-dihydro-indol-1-yl)-[4-(4-methoxy-benzoyl)-piperidin-1-yl]-methanone] | 3e-07 to 3e-06 |
| CCN(C(=O)N1CCC(C(=O)c2ccccc2)CC1)c1ccc(OC)cc1 [Compound A14, 4-benzoyl-piperidine-1-carboxylic acid ethyl-(4-methoxy-phenyl)-amide] | < 3e-07 |
| CCN(C(=O)N1CCC(C(=O)c2ccc(OC)c(C)c2)CC1)c1ccc(OC)cc1 [Compound A24, 4-(4-methoxy-3-methyl-benzoyl)-piperidine-1-carboxylic acid ethyl-(4-methoxy-phenyl)-amide] | < 3e-07 |
| CCN(C(=O)N1CCC(C(=O)c2cccc(OC)c2)CC1)c1ccc(OC)cc1 [Compound A28, 4-(3-methoxy-benzoyl)-piperidine-1-carboxylic acid ethyl-(4-methoxy-phenyl)amide] | < 3e-07 |
| Cc1ccc(C(=O)C2CCN(C(=O)N3CCc4ccccc43)CC2)cc1 [Compound A17, (2,3-dihydro-indol-1-yl)-[4-(4-methyl-benzoyl)-piperidin-1-yl]-methanone] | 3e-07 to 3e-06 |
| O=C(c1ccccc1)C1CCN(C(=O)N2CCc3ccccc32)CC1 [Compound A16, (4-benzoyl-piperidin-1-yl)-(2,3-dihydro-indol-1-yl)-methanone] | 3e-06 to 5e-05 |
| CN(C(=O)N1CCC(C(=O)c2ccc(NS(C)(=O)=O)cc2)CC1)c1ccccc1 [Compound A38, 4-(4-methanesulfonylamino-benzoyl)-piperidine-1-carboxylic acid methyl-phenyl-amide] | 3e-07 to 3e-06 |
| COc1ccc(N(C)C(=O)N2CCC(C(=O)c3ccc(F)cc3)CC2)cc1 [Compound A8, 4-(4-fluoro-benzoyl)-piperidine-1-carboxylic acid (4-methoxy-phenyl)-methylamide] | < 3e-07 |
| COc1ccc(N(C)C(=O)N2CCC(C(=O)c3ccccc3)CC2)cc1 [Compound A4, 4-benzoyl-piperidine-1-carboxylic acid (4-methoxy-phenyl)-methyl-amide] | 3e-07 to 3e-06 |
| COc1ccc(N(C)C(=O)N2CCC(C(=O)c3cccc(C)c3)CC2)cc1 [Compound A25, 4-(3-methyl-benzoyl)-piperidine-1-carboxylic acid (4-methoxy-phenyl)methyl-amide] | < 3e-07 |
| Cc1ccc(N(C)C(=O)N2CCC(C(=O)c3ccccc3)CC2)cc1 [Compound A2, 4-benzoyl-piperidine-1-carboxylic acid methyl-p-tolyl-amide] | 3e-07 to 3e-06 |
| COc1ccc(N(CCO)C(=O)N2CCC(C(=O)c3ccccc3)CC2)cc1 [Compound A15, 4-benzoyl-piperidine-1-carboxylic acid (2-hydroxy-ethyl)-(4-methoxy-phenyl)amide] | 3e-07 to 3e-06 |
| CCN(C(=O)N1CCC(C(=O)c2cccc(C)c2)CC1)c1ccc(OC)cc1 [Compound A26, 4-(3-methyl-benzoyl)-piperidine-1-carboxylic acid ethyl-(4-methoxy-phenyl)amide] | < 3e-07 |
| Cc1cccc(N(C)C(=O)N2CCC(C(=O)c3ccccc3)CC2)c1 [Compound A1, 4-benzoyl-piperidine-1-carboxylic acid methyl-m-tolyl-amide] | 3e-07 to 3e-06 |
| CCOC(=O)CN(C(=O)N1CCC(C(=O)c2ccc(OC)cc2)CC1)c1ccccc1 [Compound A40, {[4-(4-methoxy-benzoyl)-piperidine-1-carbonyl]-phenyl-amino}-acetic acid ethyl ester] | < 3e-07 |
| COc1ccc(N(C)C(=O)N2CCC(C(=O)c3ccc(OC)c(F)c3)CC2)cc1 [Compound A29, 4-(3-fluoro-4-methoxy-benzoyl)-piperidine-1-carboxylic acid (4-methoxy-phenyl)-methyl-amide] | < 3e-07 |
| COc1ccc(N(C)C(=O)N2CCC(C(=O)c3cccc(F)c3)CC2)cc1 [Compound A7, 4-(3-fluoro-benzoyl)-piperidine-1-carboxylic acid (4-methoxy-phenyl)-methylamide] | 3e-07 to 3e-06 |
| CN(C(=O)N1CCC(C(=O)c2ccccc2)CC1)c1ccc(F)cc1 [Compound A13, 4-benzoyl-piperidine-1-carboxylic acid (4-fluoro-phenyl)-methyl-amide] | 3e-07 to 3e-06 |
| COc1ccc(N(C)C(=O)N2CCC(C(=O)c3ccc(C)cc3)CC2)cc1 [Compound A5, 4-(4-methyl-benzoyl)-piperidine-1-carboxylic acid (4-methoxy-phenyl)-methylamide] | < 3e-07 |
